Laboratory results: ChEMBL document CHEMBL3407345, “Synthesis and biological evaluation of pyridazino[1',6':1,2]pyrido[3,4-b]indolinium and pyridazino[1,6-a]benzimidazolium salts as anti-inflammatory agents” (Eur J Med Chem, 2015)
Calls of active or inactive are those of the source. No cut-off for these calls is given here.

Key:
[1] = Toxicity against human THP1 cells assessed as cell viability at 10 uM incubated for 24 hrs by propidium iodide staining based flow cytometry; details: thp-1, 24 h
[2] = Toxicity against LPS-stimulated human THP1 cells assessed as cell viability at 10 uM incubated for 24 hrs by propidium iodide staining based flow cytometry; details: thp-1, 24 h
[3] = Anti-inflammatory activity in human THP1 cells assessed as inhibition of LPS-stimulated TNFalpha production at 1 uM incubated for 24 hrs followed by further stimulation with LPS during last 4 hrs by ELISA method; format: functional; details: THP-1
[4] = Anti-inflammatory activity in human THP1 cells assessed as inhibition of LPS-stimulated TNFalpha production at 5 uM incubated for 24 hrs followed by further stimulation with LPS during last 4 hrs by ELISA method; format: functional; details: THP-1
[5] = Anti-inflammatory activity in human THP1 cells assessed as inhibition of LPS-stimulated TNFalpha production at 10 uM incubated for 24 hrs followed by further stimulation with LPS during last 4 hrs by ELISA method; format: functional; details: THP-1
[6] = Anti-inflammatory activity in human THP1 cells assessed as inhibition of LPS-stimulated TNFalpha production at 25 uM incubated for 24 hrs followed by further stimulation with LPS during last 4 hrs by ELISA method; format: functional; details: THP-1
[7] = Toxicity against LPS-stimulated human THP1 cells assessed as cell viability at 10 uM incubated for 24 hrs by propidium iodide staining based flow cytometry relative to control; design: species or system THP-1; details: read-out: Activity
[8] = molecular target: T1, Tumor necrosis factor receptor superfamily member 1A (Homo sapiens, UniProt P19438); assay: Inhibition of TNFR1 (unknown origin)
T1 sequence (P19438 whole entry): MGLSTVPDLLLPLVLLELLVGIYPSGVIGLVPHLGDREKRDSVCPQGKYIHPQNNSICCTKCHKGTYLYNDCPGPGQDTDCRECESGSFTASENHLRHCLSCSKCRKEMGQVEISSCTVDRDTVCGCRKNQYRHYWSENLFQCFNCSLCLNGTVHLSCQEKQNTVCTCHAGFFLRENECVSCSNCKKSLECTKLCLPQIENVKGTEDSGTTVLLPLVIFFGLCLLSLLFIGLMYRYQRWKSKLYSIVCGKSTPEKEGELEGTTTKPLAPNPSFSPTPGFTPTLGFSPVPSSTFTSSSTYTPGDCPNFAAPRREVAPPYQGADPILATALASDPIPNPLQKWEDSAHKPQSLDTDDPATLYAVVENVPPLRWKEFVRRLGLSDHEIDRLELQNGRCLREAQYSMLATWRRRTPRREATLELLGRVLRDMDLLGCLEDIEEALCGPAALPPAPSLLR

[9] = Anti-inflammatory activity in human THP1 cells assessed as inhibition of LPS-stimulated TNFalpha production incubated for 24 hrs followed by further stimulation with LPS during last 4 hrs by ELISA method; format: functional, cell-based; details: THP-1
[10] = Anti-inflammatory activity in human THP1 cells assessed as inhibition of LPS-stimulated TNFalpha production at 50 uM incubated for 24 hrs followed by further stimulation with LPS during last 4 hrs by ELISA method; format: functional; details: THP-1
[11] = Anti-inflammatory activity in human THP1 cells assessed as inhibition of LPS-stimulated TNFalpha production at 100 uM incubated for 24 hrs followed by further stimulation with LPS during last 4 hrs by ELISA method; format: functional; details: THP-1
Homo sapiens [12] = species on record: Homo sapiens; assay: Anti-inflammatory activity in human MDDC assessed as inhibition of poly I:C stimulated-IL12 production at 1 and 5 uM pre-incubated for 1 hr followed by overnight poly I:C stimulation by cytometric bead array method; format: functional
Monocyte [13] = assay: Anti-inflammatory activity in CD14 expressing human monocytes assessed as inhibition of LPS-stimulated TNFalpha mRNA expression overnight incubated with 1 uM compound followed by further stimulation with LPS for 2 hrs by quantitative RT-PCR analysis; format: functional, cell-based
Mus musculus = assay: Inhibition of LPS-stimulated TNFalpha production in spelnocytes derived from C57BL/6 mouse treated with two doses of compound at 2 mg/kg, ip at interval of 18 hrs measured 4 hrs after second dose by cytometric bead array method; format: functional, organism-based; design: dose 2 mg/kg
Monocyte [14] = assay: Anti-inflammatory activity in human monocytes assessed as inhibition of poly I:C stimulated-IL12 production at 1 and 5 uM pre-incubated for 1 hr followed by overnight poly I:C stimulation by cytometric bead array method; format: functional, cell-based
[15] = Anti-inflammatory activity in human THP1 cells assessed as inhibition of LPS-stimulated TNFalpha production at 0.1 uM incubated for 24 hrs followed by further stimulation with LPS during last 4 hrs by ELISA method; format: functional; details: THP-1
PBMC [16] = assay: Anti-inflammatory activity in human PBMC assessed as inhibition of LPS-stimulated TNFalpha production at 0.1 uM incubated for 24 hrs followed by further stimulation with LPS during last 4 hrs by ELISA method; format: functional
PBMC [17] = assay: Anti-inflammatory activity in human PBMC assessed as inhibition of LPS-stimulated TNFalpha production at 1 uM incubated for 24 hrs followed by further stimulation with LPS during last 4 hrs by ELISA method; format: functional
PBMC [18] = assay: Anti-inflammatory activity in human PBMC assessed as inhibition of LPS-stimulated TNFalpha production at 5 uM incubated for 24 hrs followed by further stimulation with LPS during last 4 hrs by ELISA method; format: functional
PBMC [19] = assay: Anti-inflammatory activity in human PBMC assessed as inhibition of LPS-stimulated TNFalpha production at 10 uM incubated for 24 hrs followed by further stimulation with LPS during last 4 hrs by ELISA method; format: functional
[20] = Anti-inflammatory activity in CD14 expressing human monocytes assessed as inhibition of LPS-stimulated TNFalpha production at 0.5 uM incubated for 24 hrs followed by further stimulation with LPS during last 4 hrs by ELISA method; format: functional; details: Monocyte
[21] = Anti-inflammatory activity in CD14 expressing human monocytes assessed as inhibition of LPS-stimulated TNFalpha production at 1 uM incubated for 24 hrs followed by further stimulation with LPS during last 4 hrs by ELISA method; format: functional; details: Monocyte
[22] = Anti-inflammatory activity in CD14 expressing human monocytes assessed as inhibition of LPS-stimulated TNFalpha production at 2.5 uM incubated for 24 hrs followed by further stimulation with LPS during last 4 hrs by ELISA method; format: functional; details: Monocyte
[23] = Anti-inflammatory activity in CD14 expressing human monocytes assessed as inhibition of LPS-stimulated TNFalpha production at 10 uM incubated for 24 hrs followed by further stimulation with LPS during last 4 hrs by ELISA method; format: functional; details: Monocyte
PBMC [24] = assay: Anti-inflammatory activity in human PBMC assessed as inhibition of LPS-stimulated TNFalpha production incubated for 24 hrs followed by further stimulation with LPS during last 4 hrs by ELISA method; format: functional, cell-based
[25] = Anti-inflammatory activity in CD14 expressing human monocytes assessed as inhibition of LPS-stimulated TNFalpha production incubated for 24 hrs followed by further stimulation with LPS during last 4 hrs by ELISA method; format: functional, cell-based; details: Monocyte
Homo sapiens [26] = species on record: Homo sapiens; assay: Anti-inflammatory activity in human MDDC assessed as inhibition of poly I:C stimulated-TNFalpha production at 1 and 5 uM pre-incubated for 1 hr followed by overnight poly I:C stimulation by ELISA method; format: functional
Monocyte [27] = assay: Anti-inflammatory activity in human monocytes assessed as inhibition of poly I:C stimulated-TNFalpha production at 1 and 5 uM pre-incubated for 1 hr followed by overnight poly I:C stimulation by ELISA method; format: functional, cell-based

Row | Compound | Activity [1] | Activity [2] | inhibition at 1 µM [3] [%] | inhibition at 5 µM [4] [%] | inhibition at 10 µM [5] [%] | inhibition at 25 µM [6] [%] | viability at 24 h, 10 µM [7] [%] | IC50 [9] [µM] | other results
1 | CCc1cc2c3[nH]c4c([N+](=O)[O-])cccc4c3cc[n+]2nc1CC.Cc1cc(C)cc(CS(=O)(=O)[O-])c1 | Non-toxic | Non-toxic | 44 | 56 | 29 | 47 | 79.4 | – | –
2 | C#CCCCn1c2cc(OC)ccc2c2cc[n+]3nc4c(cc3c21)-c1cccc2cccc-4c12.Cc1cc(C)cc(CS(=O)(=O)[O-])c1 | Non-toxic | Non-toxic | – | – | 94 | – | 0 | – | –
3 | Cc1cc2occ(CN(C)CCN(C)Cc3cn(-c4cccc(C(F)(F)F)c4)c4ccccc34)c(=O)c2cc1C | – | – | – | – | – | – | – | – | IC50 [8]: 22 µM
4 | CCOC(=O)Cn1c2cc(OC)ccc2c2cc[n+]3nc(CC)c(CC)cc3c21.Cc1cc(C)cc(CS(=O)(=O)[O-])c1 | Non-toxic | Non-toxic | 51 | 67 | 45 | 94 | 89.7 | 11.5 | –
5 | CCc1cc2c3c(cc[n+]2nc1CC)c1ccc(OC)cc1n3CCCI.[I-] | Non-toxic | Non-toxic | 11 | 36 | 72 | 79 | 63.3 | 9.88 | –
6 | O=C1NC2c3ccccc3C(=O)N2c2ccccc21 (centres undefined) | – | – | – | – | – | – | – | 9.33 | –
7 | Cc1cc(C)cc(CS(=O)(=O)[O-])c1.O=C(O)CCCn1c2ccccc2[n+]2nc3c(cc12)-c1cccc2cccc-3c12 | Non-toxic | Non-toxic | – | – | 19 | 47 | 86 | 39.2 | inhibition at 50 µM [10]: 70%; inhibition at 100 µM [11]: 85%
8 | CCc1cc2c3[nH]c4ccc(Br)cc4c3cc[n+]2nc1CC.Cc1cc(C)cc(CS(=O)(=O)[O-])c1 | Non-toxic | Non-toxic | – | – | 89 | – | 3.76 | – | –
9 | CCc1cc2c3[nH]c4c(N)cccc4c3cc[n+]2nc1CC.Cl.Cl | Non-toxic | Non-toxic | 13.3 | -13.4 | 88 | – | 65 | – | –
10 | CCc1cc2c3c(cc[n+]2nc1CC)c1ccc(OC)cc1n3CC(=O)O.Cc1cc(C)cc(CS(=O)(=O)[O-])c1 | Non-toxic | Non-toxic | – | – | 38 | 29 | 93 | – | inhibition at 50 µM [10]: 35%; inhibition at 100 µM [11]: 40%
11 | CCc1cc2c3c(cc[n+]2nc1CC)c1ccc(OCc2ccccc2)cc1n3C(=O)OC(C)(C)C.Cc1cc(C)cc(CS(=O)(=O)[O-])c1 | Non-toxic | Non-toxic | – | – | 94 | – | 33 | – | –
12 | COc1ccc2c(c1)[nH]c1c2cc[n+]2nc(C)c(C)cc12.[Br-] | Non-toxic | Non-toxic | 34.9 | 63.4 | 87.8 | – | 61.3 | 4.49 | inhibition (Homo sapiens [12]): Active; inhibition (Monocyte [13]): Active; inhibition (Mus musculus): Active; inhibition (Monocyte [14]): Active; inhibition at 0.1 µM [15]: -0.97%; inhibition at 0.1 µM (PBMC [16]): 22.7%; inhibition at 1 µM (PBMC [17]): 38.8%; inhibition at 5 µM (PBMC [18]): 71.2%; inhibition at 10 µM (PBMC [19]): 69.2%; inhibition at 0.5 µM [20]: 28.6%; inhibition at 1 µM [21]: 38.1%; inhibition at 2.5 µM [22]: 56.4%; inhibition at 10 µM [23]: 95.3%; IC50 (PBMC [24]): 3.91 µM; IC50 [25]: 1.82 µM; inhibition (Homo sapiens [26]): Active; inhibition (Monocyte [27]): Active
13 | C#CCCCn1c2cc(OC)ccc2c2cc[n+]3nc(-c4ccco4)c(-c4ccco4)cc3c21.Cc1cc(C)cc(CS(=O)(=O)[O-])c1 | Non-toxic | Non-toxic | – | – | 87 | – | 0 | – | –
14 | CCc1cc2c3c(cc[n+]2nc1CC)c1ccc(OC)cc1n3CCCC#CC#CCCCn1c2cc(OC)ccc2c2cc[n+]3nc(CC)c(CC)cc3c21.Cc1cc(C)cc(CS(=O)(=O)[O-])c1.Cc1cc(C)cc(CS(=O)(=O)[O-])c1 | Non-toxic | Non-toxic | – | – | 34 | – | 9.54 | – | –
15 | Cc1ccc(C2=Cc3ccccc3C3N(C)C(=O)c4ccccc4N23)cc1 (centres undefined) | – | – | – | – | 47 | – | – | – | –
16 | Cc1cc(C)cc(CS(=O)(=O)[O-])c1.O=C(O)Cn1c2ccccc2[n+]2nc3c(cc12)-c1cccc2cccc-3c12 | Non-toxic | Non-toxic | 12 | 7 | 45 | 84 | 69.9 | 14.6 | inhibition at 0.1 µM [15]: 9%
17 | CN(C)CCC[N+](C)(C)CCCn1c2ccccc2[n+]2nc3c(cc12)-c1cccc2cccc-3c12.[Br-].[Br-] | Non-toxic | Non-toxic | – | – | 39 | – | 25.3 | – | –
